Data reported in patent US5192774A, “Substituted acetamide derivatives, process for their preparation and antiulcer drug containing same” (Zeria Pharmaceutical Co., Ltd., priority 1988, dated 1993).

How the values were obtained:
[1] = test system: gastric acid secretion (histamine-stimulated); test: Effects on Gastric Acid Secretion of Anesthesia Fistula Rat by Histamine; format: in vivo, rat (male SD); conditions: 30 mg/kg, histamine infusion, acid output 1 to 4 hours after administration
Experimental: The aggressive factor inhibition action was evaluated from the effects on the gastric acid secretion of anesthesia fistula rats by histamine, while the protective factor potentiation action was evaluated from the effects observed in a hydrochloric acid-ethanol ulcer model. In the Tables, the column of test compounds indicates Example numbers where the compounds are prepared. Male SD rats (Japan Charles River Co., Ltd.) each weighing 180 to 200 g were fasted for 24 hours before celiotomy with etherrization. A feeding tube (fr. 3.5) for injecting test medicines was inserted into the duodenum, and the pylorus was ligatured. A polyethylene tube (inner diameter: 7 mm) was used in the anterior stomach and gastric fistula was performed. After washing the inside of the stomach with heated physiological salt solution (37° C.) several times, the body was closed. A tube with a fin was inserted into the caudal vein and was fastened with a tape and it was connected to a infusion pump (Harvard). The rats were enclosed in a KN Ballman II cage (Natsume Seisakusho). Gastric juice flowed from the fistula was collected with a […] one hour. Starting form one hour after the operation, histamine was continuously injected at a rate of 1.4 ml/hour through the caudal vein. Then, test compounds suspended in 0.5% sodium caboxy methyl cellulose (Na-CMC) were administered one hour after the start of the histamine injection. The gastric juice thus extracted in a period from one hour after the administration of the chemical to four hours after that was titrated by using an automatic titration aparatus (Kyoto Electronic) with 0.1N NaOH to adjust pH 7, and the quantity of the gastric juice was measured to obtain the total acid output. […] [formula]

[2] = test system: ICR:Crj 5 week old male mice; test: Toxicity test, repeated oral administration for 14 days; format: in vivo, mouse (ICR:Crj; conditions: 500 mg/kg/day
Experimental: (§1) The compounds according to Examples 2, 7, 8 and 12 were respectively suspended in 3% gum arabic solution and continuously, forcedly and orally administrated to three ICR:Crj 5 week old male mice for 14 days at a dose of 500 mg/kg/day.

[3] = test system: ulcer formation caused by hydrochloric acid-ethanol; test: Hydrochloric Acid-Ethanol Ulcer Test; format: in vivo, rat (male SD); conditions: 100 mg/kg, oral, 30 minutes before hydrochloric acid-ethanol; rat
Experimental: The aggressive factor inhibition action was evaluated from the effects on the gastric acid secretion of anesthesia fistula rats by histamine, while the protective factor potentiation action was evaluated from the effects observed in a hydrochloric acid-ethanol ulcer model. In the Tables, the column of test compounds indicates Example numbers where the compounds are prepared.
Male SD rats each weighing 170 to 190 g were fasted for 24 hours, and 1 ml of 150 mM hydrochloric acid-60% ethanol was orally administered to each rat. After one hour, rats were clubbed to death, and the stomach was extracted. 10 ml of 2% formalin solution was applied to the stomach for fixing for 10 minutes. The length (mm) of the injuries in the tunica mucosa taken place in the glandular stomach was measured under a stereoscopic microscope. The total length of the injuries of the individual was taken as the ulcer index.
Test compounds or control (1% Na-CMC) were orally administered in an amount of 0.5 ml/100 g, 30 minutes before the administration of hydrochloric acid-ethanol.

[4] = Acute toxicity test by oral administration; format: in vivo
Experimental: as §1

Compound	Gastric acid secretion inhibition effect (%) [1] [%]	death [2]	Ulcer Inhibition Rate(%) [3] [%]	LD50 value ([4]; acute, oral administration) [mg/kg]	LD50 ([4]; mouse, in vivo, po) [mg/kg]
CC(=O)OCCSCC(=O)NCCCOc1cccc(CN2CCCC2)c1 [Example 12, N-[3-[3-(1-pirrolidinylmethyl)phenoxy]propyl]-2-(2-acetoxyethyl-1-thio)acetamide]	55.4	No rat died			
O=C(CO)NCCCOc1cccc(CN2CCCCC2)c1 [Roxatidine, reference compound]	68.8		69.4	755	
O=C(CSCCO)NCCCOc1cccc(CN2CCCCC2)c1 [Example 2, N-[3-[3-(piperidinomethyl)phenoxy]propyl]-2-(2-hydroxyethyl-1-thio)acetamide]	79.5	No rat died	72.5		2380
CN/C(=N/CCSCc1nc[nH]c1C)NC#N [Cimetidine, reference compound]	32.3		22.7		
O=C(CSCCO)NCCCOc1cccc(CN2CCCC2)c1 [Example 8, N-[3-[3-(1-pyrrolidinylmethyl)phenoxy]propyl]-2-(2-hydroxyethyl-1-thio)acetamide]	70.9	No rat died			
O=C(CS(=O)(=O)CCO)NCCCOc1cccc(CN2CCCCC2)c1 [Example 7, N-[3-[3-(piperidinomethyl)phenoxy]propyl]-2-(2-hydroxyethylsulfonyl)acetamide]	59.4	No rat died			
